Measured values taken from patent US12540112B2, “Crystal form I of curcumin derivative, preparation method therefor and application thereof” (WENZHOU MEDICAL UNIVERSITY, priority 2019, dated 2026).
Values joined by “and” are separate entries in the source; they are usually repeats but may differ in a detail not shown here. Identical values can stand only once. “Also recorded” adds a separate entry of the source.

Assays:
Assay type in all cases: physicochemical
[1] = Fluidity test: bulk density and tap density determination
Description: (2) Bulk Density and Tap Density Determination
The crystal form I is added to a measuring cylinder, and the weight and volume of the material added are calculated. A densitometer is used to tap and record the volume of the material after tapping.

[2] = Two-week solid-state stability determination (XRPD and HPLC); details: 2 weeks; for Purity after storage: HPLC, initial purity 99.72%; for Stability of crystalline shape: XRPD
Text: […] Samples are taken after 2 weeks to test the stability of the samples by XRPD and HPLC.

[3] = Fluidity test: angle of repose measurement
Description: (1) Angle of Repose Measurement
An iron stand configured to measure the angle of repose is placed in a horizontal position, a funnel is fixed on the iron stand, and a plastic receiving container is placed directly under the funnel. The crystal form I is added to the funnel to make the material flow down slowly from the funnel to form a cone shape. The height of the bottom of the funnel and the top of the flowed-down material is maintained at a height of about 2-4 cm. The measurement is repeated 5 times to calculate the average value.

[4] = Moisture absorption determination according to the Pharmacopoeia
Description: In this embodiment, the moisture absorption of crystal form I is investigated according to the Pharmacopoeia, and the details are as follows: • (1) 2 dry glass weighing bottles with stoppers (outer diameter of 50 mm, height of 30 mm) are taken and placed in a desiccator where a saturated solution of ammonium chloride is placed in a lower part. The weighing bottles are placed with open lips, the lid of the desiccator is closed, and the desiccator is placed in a constant temperature room at 25° C. and left overnight. • (2) after left overnight, the weighing bottles are taken out and accurately weighted, results of which are m1 1 and m1 2 respectively. • (3) an appropriate amount of the API sample is taken and laid flat in a weighed weighing bottle (the thickness of the sample is about 1 mm), and accurately weighted, results of which are m2 1 and m2 2 respectively. • (4) the weighing bottles are placed with open lips and placed with the bottle caps in the desiccator with the saturated solution of ammonium chloride in the lower part, the lid of the desiccator is closed, and the desiccator is placed in a thermostat at 25° C. for 24 hours. • (5) after leaving for 24 hours, the weighing bottles are capped and accurately weighted, results of which are m3 1 and m3 2 respectively. • (6) the calculation formula for moisture absorption weight gain is as follows: Weight gain percentage=100%×(m3−m2)/(m2−m1)

Carr index ([1]; (tap density − bulk density)/tap density × 100): 21.60
ρ (bulk density) ([1]; M 29.85 g, V 44.0 mL): 0.678 g/mL
ρ-tapped (tap density) ([1]; M 29.85 g, V-tapped 34.5 mL): 0.865 g/mL
fluidity (from Carr index) ([1]; judgement in words): good fluidity
Purity after storage ([2]; 25° C./60% RH/60% RH): 99.70%
Stability of crystalline shape ([2]; 25° C./60% RH/60% RH): YES
Purity after storage ([2]; 25° C./92.5% RH): 99.72%
Stability of crystalline shape ([2]; 25° C./92.5% RH): YES
Purity after storage ([2]; 40° C./75% RH): 99.70%
Stability of crystalline shape ([2]; 40° C./75% RH): YES
Purity after storage ([2]; 60° C./75% RH): 99.68%
Stability of crystalline shape ([2]; 60° C./75% RH): YES
change of purity on storage ([2]; all storage conditions): does not change significantly
stability of crystal form ([2]; all storage conditions): remains stable
angle of repose, Average value ([3]; average of 5 repeated measurements): 41.80 °
fluidity ([3]; judgement in words): good fluidity; also recorded: acceptable
Weight gain percentage, Average value ([4]; 25° C., saturated ammonium chloride solution desiccator, 24 hours, average of 2): 0.16%
Weight gain percentage (moisture absorption) ([4]; 25° C., saturated ammonium chloride solution desiccator, 24 hours, listed as C66-HC-006-13-06): 0.17% and 0.15%
moisture absorption ([4]; judgement in words): no or almost no moisture absorption
SMILES: O=C1/C(=C/c2ccccc2C(F)(F)F)CCC/C1=C\c1ccccc1C(F)(F)F [crystal form I]
angle of repose ([3]; single measurements 1 to 5, funnel method): 41.30° and 40.86° and 42.93° and 41.87° and 42.02°
